Reference: patent publication US4024282A, “Pharmaceutically active 2-(3-alkylaminopropoxy)diphenylmethanes” (Mitsubishi Chemical Industries Ltd., priority 1975, dated 1977)
Counter-ions that a name gives are not always drawn. Like-named read-outs stand apart in the source and are kept apart here.

Legend:
[1] = system: reserpine induced hypothermia; assay: Antagonism of reserpine induced hypothermia in mice (antireserpine / antidepressant activity); type: in vivo; settings: for Antidepressant activity (in words): according to pharmacological testing, reversal of reserpine hypothermia in mice
Procedure: (§1) The compounds were administered intraperitoneally and the activities of the compounds were compared with those of Amitriptyline.

[2] = system: electroshock induced tonic extensor; assay: Antagonism of electroshock induced tonic extensor (anticonvulsant activity); type: in vivo; settings: Mus musculus, ip; mice; dose preventing 50% of response
Procedure: as §1

[3] = system: neurological deficit as measured by traction tests; assay: Traction test (CNS depressant activity, muscle relaxant action); type: in vivo; settings: mice; for ED50: Mus musculus, ip, traction test, dose preventing 50% of response
Procedure: as §1

[4] = system: spontaneous motor activity; assay: Spontaneous motor activity measured by ANIMEX apparatus (CNS depressant activity); type: in vivo; settings: Mus musculus, ip, mice, i.p., dose preventing 50% of response, read-out: Spontaneous motor activity depression ED50
Procedure: as §1

[5] = system: tremorine induced tremor; assay: Tremorine induced tremor (central anticholinergic effect); type: in vivo; settings: mice; for ED50: Mus musculus, ip, i.p., dose preventing 50% of response, read-out: Antitremorine effect ED50
Procedure: as §1

[6] = in vivo; settings: mouse, ip
[7] = mice, in b83 as compared with Amitriptyline at the same relative potency

CN(C)CCCOc1ccccc1Cc1ccccc1 [2-(3-dimethylaminopropoxy)-diphenylmethane]
Antidepressant activity (in words) [1]: do not possess antidepressant activity

CN(C)CCOc1ccccc1Cc1ccccc1 [2-(2-dimethylaminoethoxy) diphenylmethane]
Antidepressant activity (in words) [1]: do not possess antidepressant activity

CNCCOc1ccccc1Cc1ccccc1 [2-(2-methylaminoethoxy) diphenylmethane]
Antidepressant activity (in words) [1]: do not possess antidepressant activity

CNCCCOc1ccccc1Cc1ccccc1 [2-(3-methylaminopropoxy) diphenylmethane hydrochloride]
Antireserpine activity, Relative Potency ([1]; mice, i.p., reserpine 5 mg/kg i.p., Amitriptyline = 1): 0.56
ED50 [2]: 40 mg/kg
ED50 [3]: 65 mg/kg
ED50 [4]: 90 mg/kg
ED50 [5]: 42 mg/kg
LD50 [6]: 160 mg/kg

CN(C)CCC=C1c2ccccc2CCc2ccccc21 [Amitriptyline, reference compound]
ED50 [2]: 16 mg/kg
ED50 [3]: 15 mg/kg
ED50 [4]: 18 mg/kg
ED50 [5]: 4 mg/kg
LD50 [6]: 65 mg/kg

CNCCCOc1ccccc1Cc1ccccc1 [2-(3-methylaminopropoxy) diphenylmethane]
Antidepressant activity (in words) [1]: high level of antidepressant activity
CNS depressant action (in words) ([3]; as compared with Amitriptyline at the same relative potency, traction test and spontaneous motor activity): weaker CNS depressant
Anticholinergic action (in words) ([5]; as compared with Amitriptyline at the same relative potency): weaker CNS depressant and anticholinergic action
Toxicity (in words) [7]: low level of toxicity
Toxicity (in words) ([7]; listed as 2-(3-methylaminopropoxy)diphenylmethane): lower toxicity
